Among the test systems are SK-MEL-28 melanoma; ACHN renal; M14 melanoma; SK-OV-3 ovarian; HL-60(TB) leukemia; MDA-MB-231 breast; MDA-MB-435; MCF7 breast; A498 renal; KM12 colon.
Holding throughout (assay): NCI tumour cell line growth inhibition, 48 h

Each structure is given as a SMILES string.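 Cells were grown in 96-well plates and exposed to each compound for 48 hours at five concentrations; endpoints were interpolated linearly between bracketing concentrations, or set to the highest concentration if not reached. At the GI50, growth is halved. At the TGI there is no net growth.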

`CN1CCN(CCCCCOc2cc(O)c3c(=O)cc(-c4ccccc4)oc3c2)CC1`: the GI50 in the assay with SK-MEL-28 melanoma is 2.22 µM; in the assay with ACHN renal it was 1.91 µM; with M14 melanoma, 1.71 µM; in the assay on SK-OV-3 ovarian it was 3.62 µM; with HL-60(TB) leukemia, 3.04 µM; with MDA-MB-231 breast it was 1.12 µM. For the same molecule, the GI50 is 2.32 µM in the assay with MDA-MB-435, 3.45 µM in the assay on MCF7 breast, 24.3 µM in the assay on A498 renal and 2.84 µM in the assay with KM12 colon. Further, the TGI turned out to be 4.25 µM in the assay with SK-MEL-28 melanoma; 3.87 µM in the assay on ACHN renal; 3.09 µM with M14 melanoma; 16.9 µM with SK-OV-3 ovarian; 8.63 µM in the assay with HL-60(TB) leukemia; 4.53 µM in the assay with MDA-MB-231 breast. The TGI in the assay on MDA-MB-435 came out at 5.33 µM; in the assay on MCF7 breast it was 11.3 µM; with A498 renal, 42.8 µM; in the assay on KM12 colon, 9.66 µM.

In the case of `O=C(O)C1CC[N-]CC1.O=C(O)C1CC[N-]CC1.[NH2-].[NH2-].[Pt+4]`, the GI50 in the assay on SK-MEL-28 melanoma, in the assay with ACHN renal, in the assay on M14 melanoma, in the assay on SK-OV-3 ovarian, in the assay on HL-60(TB) leukemia and in the assay on MDA-MB-231 breast was more than 100 µM in each case. For the same molecule, the GI50 with MDA-MB-435, with MCF7 breast, in the assay with A498 renal and with KM12 colon was more than 100 µM in each case. Further, the TGI with SK-MEL-28 melanoma, in the assay on ACHN renal, with M14 melanoma, in the assay on SK-OV-3 ovarian, with HL-60(TB) leukemia and with MDA-MB-231 breast was more than 100 µM in each case. Further, the TGI in the assay with MDA-MB-435, in the assay with MCF7 breast, in the assay on A498 renal and with KM12 colon was more than 100 µM each time.

With `COc1cc(C2C=C(C)N=C3SC=C(C)N32)cc(OC)c1OC` (stereo not given), the GI50 in the assay with SK-MEL-28 melanoma is 0.507 µM; in the assay on ACHN renal it was 0.618 µM; with M14 melanoma, 1.13 µM; in the assay on SK-OV-3 ovarian, 2.91 µM; with HL-60(TB) leukemia, 0.76 µM; in the assay on MDA-MB-231 breast it was 1.5 µM. The GI50 with MDA-MB-435 is 0.631 µM; in the assay with MCF7 breast, 0.333 µM; with A498 renal it was 2.39 µM; in the assay with KM12 colon it was 1.33 µM. In addition, the TGI in the assay with SK-MEL-28 melanoma is 2.01 µM; in the assay with ACHN renal it was 3.61 µM; in the assay with M14 melanoma it was 2.89 µM; in the assay with SK-OV-3 ovarian, 8.54 µM; in the assay with HL-60(TB) leukemia it was 7.09 µM; with MDA-MB-231 breast it was 9.26 µM. For the same molecule, the TGI was determined as 6.45 µM in the assay with MDA-MB-435, 11.9 µM with MCF7 breast, 5.64 µM in the assay on A498 renal and 4.55 µM in the assay with KM12 colon.

In the case of `COC(=O)COc1ccccc1/C=C1/N=C(c2ccccc2)N(c2c(C)n(C)n(-c3ccccc3)c2=O)C1=O`, the GI50 in the assay with SK-MEL-28 melanoma, in the assay on ACHN renal, with M14 melanoma, with SK-OV-3 ovarian, in the assay on HL-60(TB) leukemia and in the assay with MDA-MB-231 breast was more than 100 µM each time. Further, the GI50 with MDA-MB-435 is more than 100 µM; with MCF7 breast, 43.4 µM; in the assay on A498 renal, more than 100 µM; with KM12 colon, 79.6 µM. Besides, the TGI with SK-MEL-28 melanoma, in the assay with ACHN renal, in the assay with M14 melanoma, with SK-OV-3 ovarian, with HL-60(TB) leukemia and in the assay on MDA-MB-231 breast was more than 100 µM throughout. Moreover, the TGI with MDA-MB-435, with MCF7 breast, in the assay on A498 renal and in the assay with KM12 colon was more than 100 µM each time.

Turning to `O=C(NNC1=NS(=O)(=O)c2ccccc2N1c1ccccc1)c1cnccn1`, the GI50 in the assay on SK-MEL-28 melanoma, with ACHN renal, in the assay on M14 melanoma, in the assay on SK-OV-3 ovarian, in the assay with HL-60(TB) leukemia and in the assay on MDA-MB-231 breast was more than 100 µM each time. For the same molecule, the GI50 with MDA-MB-435, with MCF7 breast, in the assay with A498 renal and in the assay on KM12 colon was more than 100 µM each time. Moreover, the TGI in the assay with SK-MEL-28 melanoma, in the assay on ACHN renal, in the assay with M14 melanoma, in the assay with SK-OV-3 ovarian, with HL-60(TB) leukemia and with MDA-MB-231 breast was more than 100 µM each time. In addition, the TGI in the assay with MDA-MB-435, in the assay with MCF7 breast, in the assay with A498 renal and in the assay with KM12 colon was more than 100 µM throughout.

Consider `N#Cc1ncc(-c2ccc(C(F)(F)F)cc2)c(NC2CCCCCC2)n1`, for which the GI50 is 71.5 µM with SK-MEL-28 melanoma; 24 µM in the assay on ACHN renal; 38.5 µM in the assay on M14 melanoma; more than 100 µM in the assay on SK-OV-3 ovarian; 10.4 µM in the assay on HL-60(TB) leukemia; 6.56 µM in the assay with MDA-MB-231 breast. Moreover, the GI50 in the assay with MDA-MB-435 is 29.1 µM; with MCF7 breast it was 5.68 µM; in the assay on A498 renal, 21.4 µM; in the assay on KM12 colon it was 13.6 µM. Further, the TGI in the assay on SK-MEL-28 melanoma, with ACHN renal, in the assay with M14 melanoma, in the assay on SK-OV-3 ovarian, in the assay with HL-60(TB) leukemia and in the assay on MDA-MB-231 breast was more than 100 µM in each case. Besides, the TGI in the assay with MDA-MB-435, with MCF7 breast, in the assay on A498 renal and with KM12 colon was more than 100 µM throughout.

Source of the values: PubChem BioAssay (NCI).
